Read-outs that look alike come from different tables or passages of the source.
Columns and labels:
GLUT1 [1] = target: T1, GLUT1 (Mus musculus, UniProt P17809); conditions: dose-dependent, 30-second time course, mice
T1 sequence (P17809 1-492): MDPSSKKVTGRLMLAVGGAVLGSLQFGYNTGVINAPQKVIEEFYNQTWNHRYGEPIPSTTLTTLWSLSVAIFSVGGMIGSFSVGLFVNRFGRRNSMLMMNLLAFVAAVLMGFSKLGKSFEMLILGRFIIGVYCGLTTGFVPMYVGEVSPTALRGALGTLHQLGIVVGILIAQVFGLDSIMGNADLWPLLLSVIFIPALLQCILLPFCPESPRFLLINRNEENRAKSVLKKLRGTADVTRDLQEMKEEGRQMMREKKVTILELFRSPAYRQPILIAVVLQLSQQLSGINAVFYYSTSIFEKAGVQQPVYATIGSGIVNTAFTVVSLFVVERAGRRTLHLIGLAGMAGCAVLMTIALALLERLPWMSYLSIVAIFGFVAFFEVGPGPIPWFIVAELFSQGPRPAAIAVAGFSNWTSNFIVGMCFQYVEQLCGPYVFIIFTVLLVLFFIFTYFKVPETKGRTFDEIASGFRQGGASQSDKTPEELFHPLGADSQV

[2] = Tracer studies of brain accumulation in focal cerebral ischemia; assay type: in vivo, C57/6J BL mice; conditions: ischemic animals, 10 minutes or two hours of focal ischemia
Method: (§1) Dithiothreitol (0.1 mmol/L) was then added separately to both DHA and ascorbate prior to use as a reducing agent. For experiments examining the effect of focal cerebal ischemia on the DHA's ability to: (1) cross the blood-brain barrier and, (2) protect cerebral tissue, we employed an intraluminal murine model of reversible (45 minutes) or permanent (24 h) right middle cerebral artery occlusion. (12) Anesthetized normothermic C57/6J BL mice were treated prior to ischemia via penile injection with either high dose DHA (250 mg/kg), low dose DHA (40 mg/kg), ascorbate (250 mg/kg), or sucrose (a non-metabolized, non-transportable marker of plasma volume). All animals underwent transcranial laser doppler measurement of cortical cerebral blood flow perioperatively. […] (11) In contrast, the experimental cohorts were followed for 24 hours and underwent pre-sacrifice neurological examination, as previously described. 13 Infarct volumes were calculated by digital analysis of serial, 2,3,5-triphenyltetrazolium-stained, sections, with volumes expressed as percentage of the ipsilateral hemisphere.^12 There were 67 animals in the reperfusion cohort (including vehicle, 40 mg/kg DHA, 250 mg/kg DHA, and 250 mg/kg ascorbate cohorts) and 54 animals in the nonreperfused cohort (including vehicle, 250 mg/kg DHA, and 250 mg/kg ascorbate cohorts). Comparisons were made between groups with a two-tailed Student t-test for unpaired variable. All studies were performed in accordance with an institutionally approved animal protocol.

[3] = 60 mg daily, human volunteers; cited from earlier work
[4] = tested on: murine stroke (right middle cerebral artery occlusion); assay: Reperfused stroke: reversible (45 minutes) right middle cerebral artery occlusion; assay type: in vivo, C57/6J BL mice; conditions: for cerebral infarct volume (percentage of the ipsilateral hemisphere): 24 hours
Method: as §1

[5] = mouse, in vivo; for serum radioactivity concentration: 15 seconds
[6] = in vivo
[7] = tested on: murine stroke (right middle cerebral artery occlusion); assay: Non-reperfused stroke: permanent (24 h) right middle cerebral artery occlusion; assay type: in vivo, C57/6J BL mice; conditions: 250 mg/kg
Method: as §1
Since clinical therapeutic antioxidant strategies might be employed prior to hospitalization and reperfusion, we examined the effect of high-dose DHA on non-reperfused stroke as well. […] This improved perfusion was associated with similar reductions in infarct volume (51±6% vehicle, 46±6% AA, and 26±5% high-DHA, p<0.01 vs. vehicle), and sacrifice neurological deficit scores (3.0±0.3% vehicle, 3.2±0.4% AA, and 1.9±0.2% high-DHA; p<0.005 for DHA vs. either control). As in the setting of reperfusion, DHA reduced mortality by nearly 50% (50% vehicle, 64% AA, and 30% high-DHA.

HL60 cells = conditions: read-out: apparent Km for transport; cited from earlier work
[8] = rat
GLUT1 [9] = target: T2, GLUT1 (Homo sapiens, UniProt P11166); conditions: in vitro data; cited from earlier work
T2 sequence (P11166 1-492): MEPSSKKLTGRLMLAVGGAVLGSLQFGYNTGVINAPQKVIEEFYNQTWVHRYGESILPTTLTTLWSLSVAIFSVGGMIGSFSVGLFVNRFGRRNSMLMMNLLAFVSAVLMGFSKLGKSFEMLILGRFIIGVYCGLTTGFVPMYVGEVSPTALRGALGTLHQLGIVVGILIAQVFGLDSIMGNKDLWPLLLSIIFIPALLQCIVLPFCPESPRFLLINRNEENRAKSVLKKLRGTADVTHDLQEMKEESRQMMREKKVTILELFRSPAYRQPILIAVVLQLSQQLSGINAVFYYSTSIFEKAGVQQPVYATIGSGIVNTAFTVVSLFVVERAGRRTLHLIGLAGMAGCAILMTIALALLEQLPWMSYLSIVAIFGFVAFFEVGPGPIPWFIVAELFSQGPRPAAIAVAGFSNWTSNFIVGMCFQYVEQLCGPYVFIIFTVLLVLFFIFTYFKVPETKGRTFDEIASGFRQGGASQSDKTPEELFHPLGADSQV

[10] = Carotid artery infusion of dehydroascorbic acid: loading of vitamin C into the brain; assay type: in vivo; conditions: 24 mg into carotid artery over forty minutes, rat
Method: An experiment was done in which the carotid artery of a subject rat was cannulated with a catheter and 24 mg of dehydroascorbic acid was injected into the artery. The injected dehydroascorbic acid was spiked with a tracer amount of radioactive (^14C-labeled) dehydroascorbic acid. The dehydroascorbic acid was infused over forty minutes and the brain was harvested. The amount of radioactive vitamin C was quantitated in the brain and total amount of injected vitamin C that accumulated in the brain was thus extrapolated. […] It is of note that the total vitamin C concentration in the normal adult rat brain is approximately 150 μg. A log-fold greater Vitamin C than baseline normal concentration of Vitamin C was thus achieved.

[11] = cited from earlier work
[12] = previous studies (11); cited from earlier work
[13] = low dose 40 mg/kg pre-treatment

Compound	inhibition of uptake of dehydroascorbic acid in the brain (GLUT1 [1])	accumulation, percent of injected dose (TD) per gram of brain tissue [2]	neurological deficit score ([4]; 250 mg/kg pre-treatment)	overall mortality ([4]; 250 mg/kg pre-treatment)	post-ischemic cerebral perfusion ([4]; 250 mg/kg pre-treatment)	cerebral infarct volume (percentage of the ipsilateral hemisphere) ([4]; 250 mg/kg pre-treatment)	maximum brain accumulation ([5]; Balb/c, iv)	serum radioactivity concentration ([5]; Balb/c, iv)	radioactivity found in the brain, percent of injected dose (ID) per gram of brain tissue [6]	infarct volume [7]	mortality [7]	pre-sacrifice regional cerebral cortical perfusion [7]	Km (HL60 cells)	calculated BBB permeability-surface area product (PS) [8]	other results
O=C[C@@H](O)[C@H](O)[C@@H](O)[C@@H](O)CO [L-glucose]	no effect														
O=C1O[C@H]([C@@H](O)CO)C(O)=C1O [ascorbic acid, L-[1-^14C]-ascorbic acid, reference compound]		only trace levels	2.7±0.7	50%	13±1%	58±4%	0.4 % ID/gram brain tissue	27 % ID/gram serum	only trace radioactivity	46±6%	64%	15±3%			steady-state plasma concentration [3]: approximately 24 μM; brain radioactivity ([5]; Balb/c, iv, 2 hours): 1.1 % ID/gram brain tissue; transport into the brain [5]: no measurable transport
OC[C@H]1O[C@@](CO)(O[C@H]2O[C@H](CO)[C@@H](O)[C@H](O)[C@H]2O)[C@@H](O)[C@@H]1O [sucrose, [fructose-1-^3H]-sucrose]		only trace levels					0.4 % ID/gram brain tissue		only trace radioactivity						brain radioactivity ([5]; Balb/c, iv, 15 min): < 0.1%
CC(C)C[C@H](N)C(=O)O [leucine]	no effect														
O=CC[C@@H](O)[C@H](O)[C@H](O)CO [D-deoxyglucose, 2-Deoxy-D-glucose, reference compound]													2500 µM	44±3.2 μl/min/gm brain tissue	concentration necessary to block the transport of dehydroascorbic acid through GLUT1 (GLUT1 [9]): greater than 50 mM
O=C1O[C@H]([C@@H](O)CO)C(=O)C1=O [dehydroascorbic acid]		~4%	1.9±0.2	27%	40±4%	12±4%		8 % ID/gram serum		26±5%	30%	30±3%	850 µM	136±12 μl/min/gm brain tissue	amount of vitamin C accumulated in the brain [10]: 2.6 mg; vitamin C accumulated in the brain as share of injected dose [10]: approximately 11%; stability ([11]; aqueous solution): hydrolyses easily; stability ([11]; low pH conditions): stable; form of vitamin C accumulating in the brains of DHA-injected animals that is ascorbic acid [12]: > 85%; neurological deficit score [4, 13]: 1.6±0.2; overall mortality [4, 13]: 24%; post-ischemic cerebral perfusion [4, 13]: 28±2%; cerebral infarct volume (percentage of the ipsilateral hemisphere) [4, 13]: 22±4%; brain radioactivity, maximum ([5]; Balb/c, iv): 4.3 % of ID/gram brain tissue; brain radioactivity ([5]; Balb/c, iv, 25 min): 3.3%; radioactivity found in the brain, percent of injected dose (ID) per gram of brain tissue ([6]; Balb/c (mouse), Fischer F344 (rat), mouse and rat, 3 min): Approximately 4%; reduction of mortality ([7]; vs. controls): ~50%

— US6608106B2 (Sloan-Kettering Institute for Cancer Research, priority 1997, dated 2003)
